Read-outs that look alike come from different tables or passages of the source.
How the values were obtained:
SHP2 [1] = target: T1, SHP2 (Homo sapiens, UniProt Q06124); test: biochemical; settings: read-out: SHP2 inhibition (%)@0.1 μM
T1 sequence (Q06124 1-593): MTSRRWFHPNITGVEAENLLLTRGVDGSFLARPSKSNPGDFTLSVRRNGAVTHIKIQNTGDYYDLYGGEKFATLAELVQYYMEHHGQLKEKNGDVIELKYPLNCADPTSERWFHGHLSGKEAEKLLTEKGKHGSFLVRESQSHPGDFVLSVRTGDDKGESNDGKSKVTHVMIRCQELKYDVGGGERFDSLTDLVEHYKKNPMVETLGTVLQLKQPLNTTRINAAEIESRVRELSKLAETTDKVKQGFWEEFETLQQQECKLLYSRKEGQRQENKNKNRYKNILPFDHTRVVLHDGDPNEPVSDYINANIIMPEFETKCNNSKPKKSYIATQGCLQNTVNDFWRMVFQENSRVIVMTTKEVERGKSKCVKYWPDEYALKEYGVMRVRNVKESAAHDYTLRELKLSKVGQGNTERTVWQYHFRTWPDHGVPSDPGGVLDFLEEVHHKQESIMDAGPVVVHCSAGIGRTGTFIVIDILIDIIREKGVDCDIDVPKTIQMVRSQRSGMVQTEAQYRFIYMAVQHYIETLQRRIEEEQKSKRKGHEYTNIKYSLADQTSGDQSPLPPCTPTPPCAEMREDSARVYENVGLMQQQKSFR

SHP2 [2] = target: T1, SHP2; test: Phosphatase assays (IC50), DiFMUP substrate
MV-4-11 = test: Cell proliferation assay (MTS/PMS); assay type: cell-based; settings: Homo sapiens, MV4-11
[3] = MV-4-11 cell proliferation, MTS/PMS readout at day 8, compounds added 24 hours after plating, read-out: IC50
[4] = SHP2 0.5 nM activated with dPEG8 peptide, DiFMUP 12 μM, 30 min

Structure (SMILES)	inhibition at 0.1 µM (SHP2 [1])	IC50 (SHP2 [2])	IC50 (MV-4-11; [3])	IC50 (MV-4-11)	IC50 (SHP2 [2]; [4])
N[C@@H]1c2cccnc2CC12CCN(c1cnc(Sc3ccncc3)cn1)CC2 [Example 86, (S)-1′-(5-(pyridin-4-ylthio)pyrazin-2-yl)-5,7-dihydrospiro [cyclopenta [b]pyridine-6,4′-piperidin]-5-amine]		14 nM			
CC(=O)N1CC(F)(F)c2c(Sc3ncc(N4CCC5(CC4)CC4CC4[C@H]5N)nc3N)cccc21 (stereo partly drawn) [Example 7, 1-(4-((3-amino-5-((2R)-2-aminospiro [bicyclo[3.1.0]hexane-3,4′-piperidin]-1′-yl)pyrazin-2-yl)thio)-3,3-difluoro-indolin-1-yl)ethan-1-one]	81%	22 nM			
Nc1nc(N2CCC3(CC2)Cc2ccccc2[C@H]3N)cnc1Sc1ccnc(N)c1Cl [Example 2, (S)-1′-(6-amino-5-((2-amino-3-chloropyridin-4-yl)thio)pyrazin-2-yl)-1,3-dihydrospiro[indene-2,4′-piperidin]-1-amine]	75%			2.7 nM	4 nM
Nc1nc(N2CCC3(CC2)Cc2ncccc2[C@H]3N)cnc1Sc1cccc(Cl)c1Cl [Example 84, (S)-1′-(6-amino-5-((2,3-dichloro-phenyl)thio)pyrazin-2-yl)-5,7-dihydrospiro[cyclopenta [b]pyridine-6, 4′-piperidin]-5-amine]		3 nM			
N=C1c2cscc2CC12CCN(c1cnc(Sc3ccnc(N)c3Cl)c(N)n1)CC2 [Example 146, 3-((2-amino-3-chloropyridin-4-yl)thio)-6-(4-imino-4H,6H-spiro [cyclopenta[c]thiophene-5,4′-piperidin]-1′-yl)pyrazin-2-amine]	82%	12 nM			
COc1ccc2c(c1)[C@@H](N)C1(CCN(c3cnc(Sc4ccnc(N)c4Cl)c(N)n3)CC1)C2 [Example 5, (S)-1′-(6-amino-5-((2-amino-3-chloropyridin-4-yl)thio)pyrazin-2-yl)-6-methoxy-1,3-dihydro spiro[indene-2,4′-piperidin]-1-amine]	84%	6 nM		4.8 nM	
Nc1nc(N2CCC3(CC2)c2ccccc2C[C@H]3N)cnc1Sc1ccnc(N)c1Cl [Example 1, (R)-1′-(6-amino-5-((2-amino-3-chloropyridin-4-yl)thio)pyrazin-2-yl)-2,3-dihydrospiro[indene-1,4′-piperidin]-2-amine]	87%				8 nM
COc1nccc(Sc2cnc(N3CCC4(CC3)Cc3ncccc3[C@H]4N)cn2)c1Cl [Example 99, (S)-1′-(5-((3-chloro-2-methoxy-pyridin-4-yl)thio)pyrazin-2-yl)-5,7-dihydrospiro [cyclopenta[b]pyridine-6,4′-piperidin]-5-amine]	89%		18 nM		
N[C@@H]1c2cccnc2CC12CCN(c1cnc(Sc3ccnc(Cl)c3Cl)cn1)CC2 [Example 104, (S)-1′-(5-((2,3-dichloropyridin-4-yl)thio)pyrazin-2-yl)-5,7-dihydrospiro [cyclopenta [b]pyridine-6,4′-piperidin]-5-amine]	87%		9 nM		
Nc1nc(N2CCC3(CC2)Cc2ncccc2[C@H]3N)cnc1Sc1ccnc(N)c1F [Example 91, (S)-1′-(6-amino-5-((2-amino-3-fluoropyridin-4-yl)thio)pyrazin-2-yl)-5,7-dihydrospiro [cyclopenta [b]pyridine-6,4′-piperidin]-5-amine]	88%		12 nM		
CN(C)c1nccc(Sc2cnc(N3CCC4(CC3)Cc3ncccc3[C@H]4N)cn2)c1Cl [Example 85, (S)-1′-(5-((3-chloro-2-(dimethyl-amino)pyridin-4-yl)thio)pyrazin-2-yl)-5,7-dihydrospiro [cyclopenta [b]pyridine-6,4′-piperidin]-5-amine]		6 nM			
Nc1nc(N2CCC3(CC2)Cc2ncccc2[C@H]3N)cnc1Sc1ccncc1F [Example 87, (S)-1′-(6-amino-5-((3-fluoropyridin-4-yl)thio)pyrazin-2-yl)-5,7-dihydrospiro[cyclopenta [b]pyridine-6,4′-piperidin]-5-amine]		9 nM			

The next lines start with results.

inhibition at 0.1 µM (SHP2 [1])	IC50 (SHP2 [2])	IC50 (MV-4-11; [3])	Structure (SMILES)	IC50 (MV-4-11)	IC50 (SHP2 [2]; [4])
86%	7 nM		Nc1nc(N2CCC3(CC2)Cc2nc(Cl)ccc2[C@H]3N)cnc1Sc1ccnc(N)c1Cl [Example 19, (S)-1′-(6-amino-5-((2-amino-3-chloropyridin-4-yl)thio)pyrazin-2-yl)-2-chloro-5,7-dihydrospiro[cyclopenta [b]pyridine-6,4′-piperidin]-5-amine]		
	7 nM	4 nM	Nc1nc(N2CCC3(CC2)Cc2ncccc2[C@H]3N)cnc1Sc1ccnc(N)c1Cl [Example 10, (S)-1′-(6-amino-5-((2-amino-3-chloropyridin-4-yl)thio)pyrazin-2-yl)-5,7-dihydrospiro [cyclopenta[b]pyridine-6,4′-piperidin]-5-amine]		
	36 nM		Nc1nc(N2CCC3(CC2)Cc2scnc2[C@H]3N)cnc1Sc1ccncc1F [Example 88, (S)-1′-(6-amino-5-((3-fluoropyridin-4-yl)thio)pyrazin-2-yl)-4,6-dihydrospiro[cyclopenta [d]thiazole-5,4′-piperidin]-4-amine]		
88%	4 nM	7.4 nM	Nc1nc(N2CCC3(CC2)Cc2sc(Cl)nc2[C@H]3N)cnc1Sc1ccnc(N)c1Cl [Example 44, (S)-1′-(6-amino-5-((2-amino-3-chloropyridin-4-yl)thio)pyrazin-2-yl)-2-chloro-4,6-dihydro-spiro[cyclopenta[d]thiazole-5,4′-piperidin]-4-amine]		
89%		4 nM	Nc1nc(N2CCC3(CC2)Cc2nc(Cl)sc2[C@H]3N)cnc1Sc1ccnc(N)c1Cl [Example 69, (S)-1′-(6-amino-5-((2-amino-3-chloropyridin-4-yl)thio)pyrazin-2-yl)-2-chloro-4,6-dihydro-spiro[cyclopenta[d]thiazole-5,4′-piperidin]-6-amine]		
82%		6 nM	COc1cccc2c1CC1(CCN(c3cnc(Sc4ccnc(N)c4Cl)c(N)n3)CC1)[C@@H]2N [Example 14, (S)-1′-(6-amino-5-((2-amino-3-chloropyridin-4-yl)thio)pyrazin-2-yl)-4-methoxy-1,3-dihydrospiro[2,4′-piperidin]-1-amine]		
82%		4.9 nM	Nc1nccc(Sc2cnc(N3CCC4(CC3)Cc3nc(Cl)sc3[C@H]4N)cn2)c1Cl [Example 68, (S)-1′-(5-((2-amino-3-chloropyridin-4-yl)thio)pyrazin-2-yl)-2-chloro-4,6-dihydrospiro[cyclopenta [d]thiazole-5,4′-piperidin]-amine]		
	56 nM		Nc1nc(N2CCC3(CC2)Cc2ncccc2C3N)cnc1Sc1ccnc(N)c1Cl (stereo not shown) [Example 121, 1′-(6-amino-5-((2-amino-3-chloropyridin-4-yl)thio)pyrazin-2-yl)-5,7-dihydrospiro [cyclopenta[b]pyridine-6,4′-piperidin]-5-amine]		
89%		3.3 nM	Nc1nc(N2CCC3(CC2)Cc2ccc(O)cc2[C@H]3N)cnc1Sc1ccnc(N)c1Cl [Example 137, (S)-1-amino-1′-(6-amino-5-((2-amino-3-chloropyridin-4-yl)thio)pyrazin-2-yl)-1,3-dihydrospiro[indene-2,4′-piperidin]-6-ol]		
	3 nM		Nc1nc(N2CCC3(CC2)Cc2ncsc2[C@H]3N)cnc1Sc1ccnc(N)c1Cl [Example 155, (S)-1′-(6-amino-5-((2-amino-3-chloropyridin-4-yl)thio)pyrazin-2-yl)-4,6-dihydrospiro[cyclopenta[d]thiazole-5,4′-piperidin]-6-amine]		
	3 nM		Nc1nccc(Sc2cnc(N3CCC4(CC3)Cc3scnc3[C@H]4N)cn2)c1Cl [Example 152, (S)-1′-(5-((2-amino-3-chloropyridin-4-yl)thio)pyrazin-2-yl)-4,6-dihydrospiro[cyclopenta[d]thiazole-5,4′-piperidin]-4-amine]		
75%	8 nM		Nc1nc(N2CCC3(CC2)CC2CC2[C@H]3N)cnc1Sc1ccnc(N)c1Cl (stereo partly drawn) [Example 81, (2R)-1′-(6-amino-5-((2-amino-3-chloropyridin-4-yl)thio)pyrazin-2-yl)spiro [bicyclo[3.1.0]hexane-3,4′-piperidin]-2-amine]		

— patent US10988466B2, “Heterocyclic derivatives useful as SHP2 inhibitors” (Jacobio Pharmaceuticals Co., Ltd., priority 2017, dated 2021)
